Legend:
Format in all cases: cell-based, human
IL-1β gene expression = test: Suppression of LPS-induced gene expression of inflammation-related factors in THP-1 cells (real time PCR): IL-1β; settings: PMA-differentiated THP-1 cells; test substance 12.5 μmol/mL 2 hours, then LPS 10 mg/mL 3 hours; n = 3
Method: (§1) THP-1 cells were subjected to induction of differentiation for 72 hours with PMA (phorbol 12-myristate 13-acetate; 100 nM/L) and then the THP-1 cells (5×10^5 cells/mL) were incubated for 24 hours in a RPMI 1640+10% FCS culture solution in a 24-well plate. After that, a test substance was added so as to make the final concentration 12.5 μmol/mL followed by conducting the preincubation for 2 hours, a lipopolysaccharide (LPS) was then added thereto so as to make the final concentration 10 mg/mL and, after 3 hours, the cells were recovered.
(§2) QIAzol Lysis Reagent (QIAGEN) (1 mL) was added to the above to suspend, 200 μL of chloroform was added thereto followed by mixing and centrifugation (at 4° C. and 1500 rpm) was conducted whereby the supernatant liquid was recovered. Total RNA was extracted and purified by treating the supernatant liquid with QIACube (QIAGEN) and RNeasy Micro Kit (QIAGEN). cDNA was prepared from the total RNA using Omniscript RT kit (QIAGEN) and Oligo(dT)12-18 Primer (Invitrogen).
(§3) Gene expression level of the inflammation-related factors [IL-1β, IL-6 and monocyte chemotactic protein (MCP)-1] was measured by a conventional real time PCR method using a fluorescent dye SYBR GREEN I (Roche Diagnostics) by Light Cycler LC 480 (the same) using cDNA synthesized from the total RNA extracted in the above (2). A calibration curve was prepared by diluting the PCR product quantified by PicoGreen dsDNA Quantitation kit (Molecular probes) (a DNA quantitation kit) to an extent of 10^2˜10^7 copies/μL. From each of the resulting quantified values, copy numbers per 10000 copies of GAPDH gene being an internal standard were calculated.

IL-6 gene expression = test: Suppression of LPS-induced gene expression of inflammation-related factors in THP-1 cells (real time PCR): IL-6; settings: PMA-differentiated THP-1 cells; test substance 12.5 μmol/mL 2 hours, then LPS 10 mg/mL 3 hours; n = 3
Method: as §1, §2, §3

[1] = tested on: monocyte chemotactic protein (MCP)-1 gene expression; test: Suppression of LPS-induced gene expression of inflammation-related factors in THP-1 cells (real time PCR): MCP-1; settings: PMA-differentiated THP-1 cells; test substance 12.5 μmol/mL 2 hours, then LPS 10 mg/mL 3 hours; n = 3
Method: as §1, §2, §3

[2] = tested on: α-smooth muscle actin (SMA) gene expression; test: Evaluation I: TGF-β-induced gene expression of fibrosis-related factors in NHLF cells: α-SMA; settings: 25 μmol/L test substance 2 hours, then TGF-β 5 ng/mL 24 hours, n = 3
Method: (§4) NHLF cells were sown so as to make their amount 4×10^4 cells/well to each well of a 12-well plate and incubated to an extent of 80% confluent in a medium where fibroblast growth medium 2 supplement mix (FGM-2 SingleQuots, Lonza) was added to a fibroblast basal medium (FBM, Lonza). After that, incubation was conducted for 2 hours in a Dulbecco modified Eagle medium (DMEM) containing 25 μmol/L of a test substance and, after addition of […] growth factor (TGF)-β thereto so as to make its final concentration 5 ng/mL, incubation was carried out for 24 hours more.
as §2, with “rpm) was then conducted whereby” for “rpm) was conducted whereby”
as §3, with “fibrosis-related” for “inflammation-related”, “[connective tissue growth factor (CTGF), α-smooth muscle actin (SMA), fibronectin, endothelin” for “[IL-1β, IL-6”, “type I collagen (Col 1)]” for “monocyte chemotactic protein (MCP)-1]”

[3] = tested on: endothelin gene expression; test: Evaluation I: TGF-β-induced gene expression of fibrosis-related factors in NHLF cells: endothelin; settings: 25 μmol/L test substance 2 hours, then TGF-β 5 ng/mL 24 hours, n = 3
Method: as §4
as §2, with “rpm) was then conducted whereby” for “rpm) was conducted whereby”
as §3, with “fibrosis-related” for “inflammation-related”, “[connective tissue growth factor (CTGF), α-smooth muscle actin (SMA), fibronectin, endothelin” for “[IL-1β, IL-6”, “type I collagen (Col 1)]” for “monocyte chemotactic protein (MCP)-1]”

[4] = tested on: type I collagen (Col 1) gene expression; test: Evaluation I: TGF-β-induced gene expression of fibrosis-related factors in NHLF cells: Col 1; settings: 25 μmol/L test substance 2 hours, then TGF-β 5 ng/mL 24 hours, n = 3
Method: as §4
as §2, with “rpm) was then conducted whereby” for “rpm) was conducted whereby”
as §3, with “fibrosis-related” for “inflammation-related”, “[connective tissue growth factor (CTGF), α-smooth muscle actin (SMA), fibronectin, endothelin” for “[IL-1β, IL-6”, “type I collagen (Col 1)]” for “monocyte chemotactic protein (MCP)-1]”

NF-κB = test: Suppressive action to NF-κB activation (luciferase reporter, HEK293T cells, TNF-α); settings: HEK293T cells with NF-κB reporter; test substance 25 μml/mL 1 hour, then TNF-α 10 ng/mL 5 hours; stimulated TNF-α = 100
Method: A preparation solution containing pGL4.32 [luc2P/NF-κB-RE/Hygrol] (Promega) which is an NF-κB reporter vector, pGL4.74 [hRluc/TK] (Promega) which is a control vector and Lipofectamine LTX (Life Technologies) which is a gene transfer agent was added to human embryo kidney cells (HEK293T cells) sown onto a […] whereupon there were prepared the cells which transiently express a reporter protein.
After 24 hours from the gene transfer, transient expression cells were peeled off by treating with trypsin, sown on a poly-lysine coated white 96-well plate and incubated for one night. The test substance was added to as to make its final concentration 25 μml/mL and, after pre-incubating for 1 hour, TNF-α was added thereto so as to make its final concentration 10 ng/mL followed by incubating for 5 hours more. The cells were dissolved and the activities of a firefly luciferase and a renilla luciferase were measured. Rate of the luminescent intensity by addition of each drug to the luminescent intensity by stimulation with TNF-α were calculated.

SMILES | Copy Numbers per 10000 Copies of GAPDH IL-1β (IL-1β gene expression) | Copy Numbers per 10000 Copies of GAPDH IL-6 (IL-6 gene expression) | Copy Numbers per 10000 Copies of GAPDH MCP-1 [1] | Copy Numbers per 10000 Copies of GAPDH α-SMA [2] | Copy Numbers per 10000 Copies of GAPDH Endothelin [3] | Copy Numbers per 10000 Copies of GAPDH Col 1 [4] | Luminescent Intensity to Stimulated TNF-α (%) (NF-κB)
O=c1oc2c(OS(=O)(=O)c3ccc(C(F)(F)F)cc3)cccc2cc1NS(=O)(=O)c1cccc(C(F)(F)F)c1 [Compound 57, 2-Oxo-3-[[3-(trifluoromethyl)phenyl]sulfonylamino]-chromen-8-yl 4-(trifluoromethyl)benzenesulfonate] | 30318.3 copies per 10000 copies of GAP | 49.0 copies per 10000 copies of GAP | 1001.3 copies per 10000 copies of GAP | 1166.3 copies per 10000 copies of GAP | 8.2 copies per 10000 copies of GAP | 9715.8 copies per 10000 copies of GAP | 7.5
O=c1oc2c(OS(=O)(=O)c3ccc(C(F)(F)F)cc3)cccc2cc1NS(=O)(=O)c1cccc(Br)c1 [Compound 58, 3-[(3-Bromophenyl)sulfonylamino]-2-oxochromen-8-yl 4-(trifluoromethyl)benzenesulfonate] | 31904.4 copies per 10000 copies of GAP | 93.2 copies per 10000 copies of GAP | 1040.9 copies per 10000 copies of GAP | 826.9 copies per 10000 copies of GAP | 7.6 copies per 10000 copies of GAP | 5901.0 copies per 10000 copies of GAP | 14.5
O=c1oc2c(OS(=O)(=O)c3cccc(Br)c3)cccc2cc1NS(=O)(=O)c1cccc(C(F)(F)F)c1 [Compound 60, 2-Oxo-3-[[3-(trifluoromethyl)phenyl]sulfonylamino]-chromen-8-yl 3-bromobenzenesulfonate] | 29872.3 copies per 10000 copies of GAP | 275.2 copies per 10000 copies of GAP | 1787.5 copies per 10000 copies of GAP | 1324.8 copies per 10000 copies of GAP | 16.9 copies per 10000 copies of GAP | 11388.1 copies per 10000 copies of GAP | 15.7
O=c1oc2c(OS(=O)(=O)c3cccc(C(F)(F)F)c3)cccc2cc1NS(=O)(=O)c1ccc(C(F)(F)F)cc1 [Compound 68, 2-Oxo-3-[[4-(trifluoromethyl)phenyl]sulfonylamino]-chromen-8-yl 3-(trifluoromethyl)benzenesulfonate] | 24423.1 copies per 10000 copies of GAP | 95.7 copies per 10000 copies of GAP | 823.5 copies per 10000 copies of GAP | 1007.1 copies per 10000 copies of GAP | 6.4 copies per 10000 copies of GAP | 8905.8 copies per 10000 copies of GAP | 16.1
